Values quoted from earlier work in US20110183005A1, “PROCESS FOR THE PREPARATION OF CO[…] OF STABILIZED HYPOBROMITES” (BROMINE COMPOUNDS LTD., priority 2002, published 2011).

Conditions: at 25° C.

OBr [Hypobromous acid]
pK: 8.8
